In one data set the test system is broiler chickens. The procedure:
The crude methionine previously obtained in solid form is added to a basic feed for broiler chickens.
The basic feed has the following composition:
The animals are divided up into groups and fed with the basic feed as control, or with a feed supplemented with crude methionine according to the invention, and then weighed at 1 day, 14 days and 28 days.

A short description of the next data set: physchem. From the text:
The third step consists in crystallizing the methionine so as to recover the crude methionine in solid form. This crystallization step can be carried out by means of technology chosen from the group consisting of crystallization by cooling, crystallization by evaporation-crystallization and adiabatic crystallization. The applicant company recommends using evaporation-crystallization. If evaporation-crystallization is selected, the applicant company recommends pre-concentrating the crude methionine solution by vacuum evaporation using a falling-film evaporator in order to approach supersaturation. The pre-concentrated solution is therefore transferred into a crystallizer of Draft tube type, for example, so as to be further concentrated and crystallized therein. […] Under these conditions, and by virtue of the removal of the soluble impurities, the solid methionine crystallizes in the form of spongy spheres which are easy to separate from the mother liquors.

Converted amounts (≈) assume the structure as drawn.

The results in this text go back to US10440974B2, “Methionine-rich composition for feeding animals” (Evonik Degussa GmbH, priority 2009, dated 2019).

The term solubility denotes the concentration that dissolves in the medium under given conditions. Lower therefore signals a poorly soluble substance.

As for `CSCCC(N)C(=O)O` (racemic) [DL-methionine of chemical origin, DL-methionine], the “optimum efficiency, added methionine” value in the data set on broiler chickens (added to basic feed) is listed as “approximately 0.19%”. In addition, in the data set with broiler chickens (basic feed has a methionine content of about 0.29%), the “optimum efficiency, methionine in the final feed” value was “approximately 0.48%”.

As for `CSCC[C@H](N)C(=O)O` [methionine, L-Methionine], the solubility in the data set “physchem” (35 °C) is approximately 70 mg/mL (≈ 469 mM). Further, in “physchem” (at 50° C.), the supersaturation came to 80 g/L.
